Data reported in BigSolDB 2.1.

c1cnc2[nH]ccc2c1
solubility (mole fraction)
Settings | 278.15 K | 283.15 K | 288.15 K | 293.15 K | 298.15 K | 303.15 K | 308.15 K | 313.15 K | 318.15 K | 323.15 K
in THF | 0.343 | 0.361 | 0.377 | 0.397 | 0.419 | 0.436 | 0.458 | 0.479 | 0.5 | 0.523
in acetone | 0.262 | 0.282 | 0.301 | 0.322 | 0.341 | 0.361 | 0.383 | 0.402 | 0.423 | 0.443
in acetonitrile | 0.11 | 0.116 | 0.124 | 0.134 | 0.145 | 0.159 | 0.174 | 0.193 | 0.214 | 0.242
in ethanol | 0.152 | 0.172 | 0.191 | 0.211 | 0.232 | 0.252 | 0.275 | 0.299 | 0.326 | 0.356
in ethyl acetate | 0.21 | 0.217 | 0.226 | 0.237 | 0.251 | 0.265 | 0.283 | 0.302 | 0.324 | 0.346
in isopropanol | 0.204 | 0.217 | 0.231 | 0.247 | 0.262 | 0.279 | 0.298 | 0.315 | 0.336 | 0.36
in methanol | 0.228 | 0.238 | 0.25 | 0.262 | 0.277 | 0.293 | 0.31 | 0.33 | 0.351 | 0.372
in n-hexane | 0.0192 | 0.0201 | 0.0215 | 0.0234 | 0.0256 | 0.0279 | 0.0307 | 0.0337 | 0.0376 | 0.0425
in n-propanol | 0.19 | 0.202 | 0.215 | 0.233 | 0.253 | 0.272 | 0.291 | 0.312 | 0.333 | 0.359
